# Entries after “also recorded” stand apart in the source; their conditions may differ.
# Tests used:
# [1] = system: cigarette smoke induced COPD model, 3MR or INK-ATTAC mice; assay: Cigarette smoke (CS) induced COPD model, oxygen saturation; format: in vivo, mouse; settings: after two months of cigarette smoke exposure, compared with untreated controls
# Method: As a model for chronic obstructive pulmonary disease (COPD), mice were exposed to cigarette smoke. The effect of a senolytic agent on the mice exposed to smoke is assessed by senescent cell clearance, lung function, and histopathology. The mice used in this study include the 3MR strain, described in US 2017/0027139 A1 and in Demaria et al., Dev Cell. 2014 Dec. 22; 31(6): 722-733. […] The enzyme in the transgene is placed under control of the p16 promoter, which causes it to be specifically expressed in senescent cells. Treatment of the mice with GCV eliminates senescent cells. Other mice used in this study include the […] strain, described in US 2015/0296755 A1 and in Baker et al., Nature 2011 Nov. 2; 479(7372):232-236. The […] mouse has a transgene encoding switchable caspase 8 under control of the p16 promoter. The caspase 8 can be activated by treating the mice with the switch compound AP20187, whereupon the caspase 8 directly induces apoptosis in senescent cells, eliminating them from the mouse. To conduct the experiment, six-week-old 3MR (n=35) or […]=35) mice were chronically exposed to cigarette smoke generated from a Teague TE-10 system, an automatically-controlled cigarette smoking machine that produces a combination of side-stream and mainstream cigarette smoke in a chamber, which is transported to a collecting and mixing chamber where varying amounts of air is mixed with the smoke mixture. The COPD protocol was adapted from the COPD core facility at Johns Hopkins University (Rangasamy et al., 2004, J. Clin. Invest. 114:1248-1259; Yao et al., 2012, J. Clin. Invest. 122:2032-2045). Mice received a total of 6 hours of cigarette smoke exposure per day, 5 days a week for 6 months. Each lighted cigarette (3R4F research cigarettes containing 10.9 mg of total particulate matter (TPM), 9.4 mg of tar, and 0.726 mg of nicotine, and 11.9 mg carbon monoxide per cigarette [University of Kentucky, Lexington, Ky.]) was puffed for 2 seconds and once every minute for a total of 8 puffs, with the flow rate of 1.05 L/min, to provide a standard puff of 35 cm3. The smoke machine was adjusted to produce a mixture of side stream smoke (89%) and mainstream smoke (11%) by smoldering 2 cigarettes at one time. The smoke chamber atmosphere was monitored for total suspended particulates (80-120 mg/m3) and carbon monoxide (350 ppm). […] An equal number of mice received the corresponding vehicle. […] After two months of cigarette smoke (CS) exposure, lung function was assessed by monitoring oxygen saturation using the MouseSTAT PhysioSuiteTM pulse oximeter (Kent Scientific). […] Mice were monitored for 30 seconds and the average peripheral capillary oxygen saturation (SpO2) measurement over this duration was calculated.
# [2] = background statement; cited from earlier work
# [3] = system: osteoarthritis model, C57BL/6J mice; assay: Osteoarthritis model (ACL surgery), intra-articular injection; format: in vivo, mouse
# Method: This example illustrates the testing of an MDM2 inhibitor in a mouse model for treatment of osteoarthritis. It can be adapted mutatis mutandis to test and develop Bcl inhibitors for use in clinical therapy.
# The model was implemented as follows. C57BL/6J mice underwent surgery to cut the anterior cruciate ligament of one rear limb to induce osteoarthritis in the joint of that limb. During week 3 and week 4 post-surgery, the mice were treated with 5.8 μg of Nutlin-3A (n=7) per operated knee by intra-articular injection, q.o.d. for 2 weeks. At the end of 4 weeks post-surgery, joints of the mice were monitored for presence of senescent cells, assessed for function, monitored for markers of inflammation, and underwent histological assessment.
# Two control groups of mice were included in the studies performed: one group comprising C57BL/6J or 3MR mice that had undergone a sham surgery (n=3) (i.e., surgical procedures followed except for cutting the ACL) and intra-articular injections of vehicle parallel to the GCV (ganciclovir) treated group; and one group comprising C57BL/6J or 3MR mice that had undergone an ACL surgery and received intra-articular injections of vehicle (n=5) parallel to the GCV-treated group. RNA from the operated joints of mice from the Nutlin-3A treated mice was analyzed for expression of SASP factors (mmp3, IL-6) and senescence markers (p16). qRT-PCR was performed to detect mRNA levels.
# Function of the limbs was assessed 4 weeks post-surgery by a weight bearing test to determine which leg the mice favored. The mice were allowed to acclimate to the chamber on at least three occasions prior to taking measurements. Mice were maneuvered inside the chamber to stand with one hind paw on each scale. The weight that was placed on each hind limb was measured over a three second period. At least three separate measurements were made for each animal at each time point. The results were expressed as the percentage of the weight placed on the operated limb versus the contralateral unoperated limb.
# [4] = system: atherosclerosis model, LDLR-/- mice; assay: Atherosclerosis model, LDLR-/- mice fed a high fat diet, systemic administration; format: in vivo, mouse
# Method: This example illustrates the testing of an MDM2 inhibitor in a mouse model for treatment of atherosclerosis. The test compounds are administered systemically rather than locally. The model is done in an LDLR−/− strain of mice, which are deficient in the receptor for low-density lipoprotein. The experiments described here can be adapted mutatis mutandis to test and develop other types of inhibitors for use in clinical therapy.
# Two groups of LDLR−/− mice (10 weeks) are fed a high fat diet (HFD) (Harlan Teklad TD.88137) having 42% calories from fat, beginning at Week 0 and throughout the study. Two groups of LDLR−/− mice (10 weeks) are fed normal chow (−HFD). From weeks 0-2, one group of HFD mice and —HFD mice are treated with Nutlin-3A (25 mg/kg, intraperitoneally). One treatment cycle is 14 days treatment, 14 days off. Vehicle is administered to one group of HFD mice and one group of −HFD mice. At week 4 (timepoint 1), one group of mice are sacrificed and to assess presence of senescent cells in the plaques. For the some of the remaining mice, Nutlin-3A and vehicle administration is repeated from weeks 4-6. At week 8 (timepoint 2), the mice are sacrificed and to assess presence of senescent cells in the plaques. The remaining mice are treated with Nutlin-3A or vehicle from weeks 8-10. At week 12 (timepoint 3), the mice are sacrificed and to assess the level of plaque and the number of senescent cells in the plaques.
# Plasma lipid levels were measured in LDLR−/− mice fed a HFD and treated with Nutlin-3A or vehicle at timepoint 1 as compared with mice fed a —HFD (n=3 per group). Plasma was collected mid-afternoon and analyzed for circulating lipids and lipoproteins.
# At the end of timepoint 1, LDLR−/− mice fed a HFD and treated with Nutlin-3A or vehicle were sacrificed (n=3, all groups), and the aortic arches were dissected for RT-PCR analysis of SASP factors and senescent cell markers. Values were normalized to GAPDH and expressed as fold-change versus age-matched, vehicle-treated LDLR−/− mice on a normal diet.
# At the end of timepoint 2, LDLR−/− mice fed a HFD and treated with Nutlin-3A or vehicle (n=3 for all groups) were sacrificed, and aortic arches were dissected for RT-PCR analysis of SASP factors and senescent cell markers. Values were normalized to GAPDH and expressed as fold-change versus age-matched, vehicle-treated LDLR−/− mice on a normal diet.
# At the end of timepoint 3, LDLR−/− mice fed a HFD and treated with Nutlin-3A or vehicle (n=3 for all groups) were sacrificed, and aortas were dissected and stained with Sudan IV to detect the presence of lipid. Body composition of the mice was analyzed by MRI, and circulating blood cells were counted by Hemavet™.
smiles,measurement,setting,value
"CC1(C)CCC(c2ccc(Cl)cc2)=C(CN2CCN(c3ccc(C(=O)NS(=O)(=O)c4ccc(N[C@H](CCN5CCOCC5)CSc5ccccc5)c(S(=O)(=O)C(F)(F)F)c4)cc3)CC2)C1 [ABT-263, Navitoclax]",SpO2 levels,[1],statistically significant increases
CN(C)CC[C@H](CSc1ccccc1)Nc1ccc(S(=O)(=O)NC(=O)c2ccc(N3CCN(Cc4ccccc4-c4ccc(Cl)cc4)CC3)cc2)cc1[N+](=O)[O-] [ABT-737],dose-limiting toxicity in human patients,[2],dose-limiting thrombocytopenia
CC[C@H](C(=O)N1CCCC[C@H]1C(=O)O[C@H](CCc1ccc(OC)c(OC)c1)c1cccc(OCC(=O)NCC(CNC(=O)COc2cccc([C@@H](CCc3ccc(OC)c(OC)c3)OC(=O)[C@@H]3CCCCN3C(=O)[C@@H](CC)c3cc(OC)c(OC)c(OC)c3)c2)CN(C)C)c1)c1cc(OC)c(OC)c(OC)c1 [AP2018],SpO2 levels,[1],statistically significant increases
COc1ccc(C2=N[C@@H](c3ccc(Cl)cc3)[C@@H](c3ccc(Cl)cc3)N2C(=O)N2CCNC(=O)C2)c(OC(C)C)c1 [Nutlin-3A],clearance of senescent cells from the joint,[3]; 5.8 μg per knee intra-articular,cleared senescent cells from the joint
same,weight bearing: favoring of unoperated over operated hind limb,[3]; 4 weeks post-surgery,abrogated this effect
same,histopathology: destruction of the proteoglycan layer,[3]; joint tissue after ACL surgery,completely abrogated this effect
same,"expression of p16, IL-6, and MMP13 in the tissue","[3]; operated joint, qRT-PCR, 4 weeks post-surgery, 5.8 μg per knee intra-articular q.o.d. 2 weeks",reduced the expression back to below the level of the controls; also recorded: ameliorated
same,"expression of SASP factors and senescent cell markers in aortic arch, timepoint 2","[4]; HFD, multiple treatment cycles, 25 mg/kg i.p., RT-PCR",reduced expression of most markers
same,"expression of SASP factors and senescent cell markers in aortic arch, timepoint 1","[4]; HFD, one treatment cycle, 25 mg/kg i.p., MMP3, MMP13, PAI1, p21, IGFBP2, IL-1A, IL-1B, RT-PCR",reduced expression of several SASP factors and senescent cell markers
same,reduction of surface area covered by plaques in the descending aorta,"[4]; HFD, timepoint 3 (week 12), Sudan IV staining",about 45%
same,mass and body fat composition,"[4]; mice fed the high fat diet, MRI, timepoint 3",decreased
same,platelet and lymphocyte counts versus vehicle treated mice,"[4]; timepoint 3, Hemavet",equivalent
same,SpO2 levels,[1],statistically significant increases
Nc1nc(O)c2ncn(COC(CO)CO)c2n1 [ganciclovir],SpO2 levels,[1],statistically significant increases

# Source: patent publication US10981892B2, “Acyl sulfonamides that are Bcl family antagonists for use in clinical management of conditions caused or mediated by senescent cells and for treating cancer” (Unity Biotechnology, Inc., priority 2018, dated 2021)
